Measurements: patent US9895363B2, “Methods for modulating function of proliferating cell nuclear antigen (PCNA) and treating cancer with PCNA-targeting compounds” (University of Cincinnati, priority 2010, dated 2018)
Like-named read-outs stand apart in the source and are kept apart here.

Columns and labels:
Normal Cells = test: Growth inhibition, mean over normal cells; format: cell-based
Description: (§1) Growth inhibitory effects of PCNA-I1 and PCNA-I2 were assessed in human cancer cell lines, mouse cancer cell lines, immortalized mouse cell lines, and human primary cell lines. Specifically, growth inhibitory effects of PCNA-I1 and PCNA-I2 were assessed using MTT staining in the following cells lines: 1) human cancer cell lines including LNCaP (androgen receptor […]), 22Rv1, DU-145, LAPC-4, and PC-3 (androgen receptor […]) prostate cancer cells; MCF-7 and T47D breast cancer cells; A375 and MDA-MB435 melanoma cells; 2) mouse cancer cell lines including TRAMP-C2RE3 prostate cancer cells, B16 and K1735 melanoma cells, UV2237 fibrosarcoma cells, and CT-26 colon cancer cells; 3) immortalized mouse lung cell lines and mouse endothelial cell lines; and 4) primary human cell lines including umbilical endothelial cells (HUVEC, PromoCell, Heidelberg, Germany), primary bone marrow mesenchymal stem cells (HuMSC, PromoCell), primary human mammary epithelial cells (HuBrEC, Lonza, Walkersville, Md.), primary human prostate epithelial cells (HuPrEC, Lonza), and primary mouse spleen lymphocytes (isolated in this laboratory), and primary mouse bone marrow stromal cells (isolated in this laboratory). […]
(§2) IC50 values were derived from growth inhibition curves. […] Inhibition of cell growth was calculated using the formula: growth inhibition (%)=(1−A570 of treated/A570 of control)×100. […]

PC-3 cells = test: Cell growth after single 24 H pre-treatment (Alamar blue); format: cell-based, Human; conditions: 0.5 μM for 24 H, washed, Alamar blue up to 144 H; FIG. 1
Source text: The necessity of a continuous presence of PCNA-I1 for cell growth was also investigated.

LNCaP cells = test: MTT assay, PCNA-I1 and cisplatin alone or combined, LNCaP; format: cell-based, Human; conditions: Homo sapiens, LNCaP
Description: LNCaP or PC-3 cells were treated with a variety of concentrations of PCNA-I1 (0.1-10 μM) or cisplatin (0.1-10 μM) alone, or with a variety of concentrations of a combination of PCNA-I1 (0.1-10 μM) and cisplatin (0.1-10 μM) for four days. MTT assays were performed and IC50 values for PCNA-I1 and cisplatin were determined.

22Rv1 cells = test: 22Rv1 tumor model in male nude mice; format: in vivo; conditions: 10 mg/kg i.p., three times/week
Description: The therapeutic effects of PCNA-I1 were evaluated in LNCaP cells and 22Rv1 tumor models. LNCaP or 22Rv1 cells (1-2×10^6 cells in gelfoam) were implanted into the subcutis of male nude mice. From four to five days later, tumor-bearing mice were intraperitoneally injected with 10 mg/kg or 50 mg/kg of PCNA-I1. The therapy was continued at three times/week until termination of experiments. Control and treated tumor-bearing mice were monitored daily. Mouse body weight was recorded for toxicity evaluation twice a week and tumor size was measured using calipers twice a week. The experiments were terminated when mice in control groups were moribund. Additionally, to further evaluate potential liver and renal toxicity of PCNA-I1, the blood of tumor-bearing mice were sampled after the treatment with PCNA-I1 for 8 weeks.

[1] = test system: primary human mammary epithelial cells; test: Growth inhibition, mammary epithelial cells; format: cell-based; conditions: Epithelial cell, normal cells, read-out: IC50 Values, Breast Epithelial Cells
Description: as §1, §2

PCNA [2] = molecular target: T1, PCNA (Homo sapiens, UniProt P12004); test: PCNA stability and degradation (immunoblot); format: cell-based; conditions: PC-3, 0.5 μM, up to 16 H, with or without CHX and MG132; FIG. 14
T1 construct: endogenous PCNA was knocked down with transfection of PCNA-specific siRNA; endogenous in cells; host or cells: PC-3
Description: PCNA is a very stable protein with a half life of 20 H in replicating cells. The effect of PCNA-I1 on PCNA stability and degradation was investigated. Specifically, PC-3 cells were treated for various times up to 24 H with protein synthesis inhibitor cycloheximide (CHX) to block de novo protein synthesis. Cells were lyzed in buffer A as discussed above and analyzed by immunoblotting. Additionally, because PCNA is subject to ubiquitination regulation, the effect of PCNA-I1 on and deregulation of PCNA through the proteosome-mediated system was also investigated. Specifically, PC-3 cells were treated for 16 H with 0.5 μM PCNA-I1 in the absence or presence of 5 μg/mL of CHX and/or 10 μM of MG132, a well-documented proteosome inhibitor.

PCNA [3] = molecular target: T1, PCNA; test: Euchromatin- and heterochromatin-associated PCNA; format: cell-based; conditions: PC-3, 0.5 μM, 8 H; FIG. 12
Description: Differential effects of PCNA-I1 on the level of euchromatin- (often under active gene transcription) and heterchromatin (often under limited gene transcription) associated PCNA were also investigated. Specifically, PC-3 cells were treated for 8 H with 0.5 μM of PCNA-I1 and PCNA was extracted by procedures known in the art with a combination of limited digestion with micrococcal nuclease and treatment with EDTA to obtain total (S1), euchromatin-associated (S2), and heterochromatin-associated (S3). The extracts were subjected to western blotting analysis.

T1 sequence (P12004 whole entry): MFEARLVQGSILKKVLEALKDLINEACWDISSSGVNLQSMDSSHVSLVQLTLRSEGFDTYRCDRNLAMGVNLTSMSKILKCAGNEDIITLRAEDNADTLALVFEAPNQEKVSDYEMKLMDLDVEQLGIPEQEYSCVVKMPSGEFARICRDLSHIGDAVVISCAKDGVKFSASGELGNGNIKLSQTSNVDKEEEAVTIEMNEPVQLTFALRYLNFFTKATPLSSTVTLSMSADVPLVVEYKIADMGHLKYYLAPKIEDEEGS

For `Cc1ccsc1C(=O)N/N=C/c1ccc2ccccc2c1O` [PCNA-I1], the IC50 (Normal Cells; mean over all normal cells, read-out: IC50 Values, Normal Cells, Mean ± SD) was 1430 ± 450 nM, the “Concentrations inhibiting growth of normal cells by 50% relative to those for tumor cells” value (Normal Cells; normal vs tumor cells, p<0.001) was “approximately 8 times” and the “Duration of growth inhibition after single one-day pre-treatment” value (PC-3 cells) was “sufficient to inhibit cell growth for up to seven days”. For the same compound, the IC50 (LNCaP cells; 96 h, MTT, four days, single agent, read-out: IC50 doses for cell growth inhibition, LNCaP, agent alone) was 230 nM, the IC50 (LNCaP cells; combined with 0.3 μM cisplatin, read-out: PCNA-I1 concentration giving 50% inhibition in combination, LNCaP) was 67 nM and the “Tumor growth, 22Rv1 model” value (22Rv1 cells) was “retarded tumor growth”. For the same compound, the IC50 [1] was 1670 nM, the PCNA degradation (PCNA [2]) was “did not alter PCNA degradation” and the “Euchromatin- and heterochromatin-associated PCNA” value (PCNA [3]) was “reduced both euchromatin- and heterochromatin protein 1α”.
